Experimental data published in PubChem BioAssay AID330 (DTP/NCI, 2004).
Several values for one entry are separate records, joined by “and”; a condition that tells them apart may be missing. Equal entries are not always repeated. Toxic doses and inconclusive results are not listed. How the source made its calls: active means survival T/C of 150% or more; inactive means T/C below 125% in these data.

Tested on: P388 leukemia ip, CD2F1 mice, survival T/C
Assay: NCI In Vivo Anticancer Drug Screen. Data for tumor model P388 Leukemia (intraperitoneal) in CD2F1 (CDF1) mice
Conditions: endpoint: median survival time, higher = longer survival
How it was run: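 Mice carrying the transplanted tumor received test compound or vehicle. Survival was recorded in each group, and the value is the treated-group measurement divided by that of the vehicle-treated control group.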

[1] = dose: 50.0 mg/kg/injection, schedule: Q01DX009 (ip), vehicle: saline
[2] = dose: 100.0 mg/kg/injection, schedule: Q01DX009 (ip), vehicle: saline
[3] = dose: 200.0 mg/kg/injection, schedule: Q01DX009 (ip), vehicle: saline
[4] = dose: 25.0 mg/kg/injection, schedule: Q01DX005 (ip), vehicle: saline
[5] = dose: 50.0 mg/kg/injection, schedule: Q01DX005 (ip), vehicle: saline
[6] = dose: 50.0 mg/kg/injection, schedule: Q01DX009 (ip), vehicle: saline with Tween-80
[7] = dose: 100.0 mg/kg/injection, schedule: Q01DX009 (ip), vehicle: saline with Tween-80
[8] = dose: 200.0 mg/kg/injection, schedule: Q01DX009 (ip), vehicle: saline with Tween-80
[9] = dose: 12.5 mg/kg/injection, schedule: Q01DX009 (ip), vehicle: saline with Tween-80
[10] = dose: 25.0 mg/kg/injection, schedule: Q01DX009 (ip), vehicle: saline with Tween-80

Measured: T/C

O=S(=O)(c1ccc(Br)cc1)S(=O)(=O)c1ccc(Br)cc1
inactive: [1] 87 % of control | [2] 92 % of control | [3] 95 % of control

CC1CCCC2CC3CCCCC3OCN12 (configuration not stated)
inactive: dose: 100.0 mg/kg/injection, schedule: Q04DX003 (ip), vehicle: saline 109 % of control | dose: 200.0 mg/kg/injection, schedule: Q04DX003 (ip), vehicle: saline 104 % of control | dose: 400.0 mg/kg/injection, schedule: Q04DX003 (ip), vehicle: saline 104 % of control

O=C1C(O)[C@@H](O)C(=O)N1Cc1ccccc1 (some centres not stated)
inactive: dose: 60.0 mg/kg/injection, schedule: Q01DX005 (ip), vehicle: Klucel (hydroxypropylcellulose) (HPC) 97 % of control | dose: 120.0 mg/kg/injection, schedule: Q01DX005 (ip), vehicle: Klucel (hydroxypropylcellulose) (HPC) 102 % of control | dose: 240.0 mg/kg/injection, schedule: Q01DX005 (ip), vehicle: Klucel (hydroxypropylcellulose) (HPC) 93 % of control

O=C(Nc1ccc(C(=O)O)c(O)c1)Nc1ccccc1C(F)(F)F
inactive: dose: 60.0 mg/kg/injection, schedule: Q01DX005 (ip), vehicle: saline with Tween-80 103 % of control | dose: 120.0 mg/kg/injection, schedule: Q01DX005 (ip), vehicle: saline with Tween-80 90 % of control | dose: 240.0 mg/kg/injection, schedule: Q01DX005 (ip), vehicle: saline with Tween-80 103 % of control

CC(=NCCN=C(C)c1cc(C)cc(Br)c1O)c1cc(C)cc(Br)c1O
inactive: dose: 50.0 mg/kg/injection, schedule: Q01DX005 (ip), vehicle: Klucel (hydroxypropylcellulose) (HPC) 108 % of control | dose: 100.0 mg/kg/injection, schedule: Q01DX005 (ip), vehicle: Klucel (hydroxypropylcellulose) (HPC) 101 % of control | dose: 200.0 mg/kg/injection, schedule: Q01DX005 (ip), vehicle: Klucel (hydroxypropylcellulose) (HPC) 117 % of control

CN1c2ccccc2S(=O)(=O)n2nnnc21
inactive: dose: 100.0 mg/kg/injection, schedule: Q01DX001 (ip), vehicle: saline with Tween-80 101 % of control | dose: 200.0 mg/kg/injection, schedule: Q01DX001 (ip), vehicle: saline with Tween-80 101 % of control | dose: 400.0 mg/kg/injection, schedule: Q01DX001 (ip), vehicle: saline with Tween-80 97 % of control

CCN1CC2(COC)C(O)CC(OC)C34C5CC6(O)C(O)C5C(O)(C(O)C6OC)C(C(OC)C23)C14 (configuration not stated)
inactive: [4] 114 % of control | [5] 102 % of control | dose: 100.0 mg/kg/injection, schedule: Q01DX005 (ip), vehicle: saline 107 % of control | dose: 200.0 mg/kg/injection, schedule: Q01DX005 (ip), vehicle: saline 104 % of control

CN(C)c1ccc(C=Nc2ccc3c4c(cccc24)-c2ccccc2-3)cc1
inactive: [6] 93 % of control | [7] 86 % of control | [8] 89 % of control

CN1CCN(c2ccncc2S(=O)(=O)N2CCN(C)CC2)CC1
inactive: [1] 97 % of control | [2] 97 % of control | [3] 87 % of control

CC1CC2OC(=O)C3=C2C(CCC3)C12CC(c1ccoc1)OC2=O (configuration not stated)
inactive: [9] 91 % of control | [10] 91 % of control and 89 % of control | [6] 93 % of control

Oc1ccccc1CNCc1ccccc1O
inactive: [9] 100 % of control | [10] 100 % of control | [6] 108 % of control | [7] 98 % of control

CC(C)CC(NC(=O)CF)C(=O)O (configuration not stated)
inactive: dose: 1.25 mg/kg/injection, schedule: Q01DX009 (ip), vehicle: saline with Tween-80 96 % of control | dose: 2.5 mg/kg/injection, schedule: Q01DX009 (ip), vehicle: saline with Tween-80 109 % of control | dose: 5.0 mg/kg/injection, schedule: Q01DX009 (ip), vehicle: saline with Tween-80 124 % of control

CCN(CC)CCNc1c(C)ccc2cccnc12
inactive: dose: 12.5 mg/kg/injection, schedule: Q01DX005 (ip), vehicle: saline 102 % of control | [4] 93 % of control | [5] 100 % of control

CSCCCCCCSC
inactive: dose: 50.0 mg/kg/injection, schedule: Q04DX003 (ip), vehicle: saline with Tween-80 100 % of control | dose: 100.0 mg/kg/injection, schedule: Q04DX003 (ip), vehicle: saline with Tween-80 100 % of control | dose: 200.0 mg/kg/injection, schedule: Q04DX003 (ip), vehicle: saline with Tween-80 109 % of control

O=Cc1ccco1
inactive: [6] 99 % of control | [7] 101 % of control | [8] 118 % of control
